Measurements from US20180133283A1, “METHOD AND COMPOSITIONS FOR SYNCHRONIZING TIME OF INSEMINATION IN GILTS” (JBS UNITED ANIMAL HEALTH II LLC, priority 2012, published 2018).

Assays:
Format in all cases: in vivo, swine
gilts [1] = assay: Example 5: estrus observation; details: raw averages, PTK 2-07
Experimental: For post-treatment estrus detection, gilts were housed in individual pens. Boars were housed in separate rooms, and/or at least 12 m away and downwind. To elicit signs of estrus, a mature boar was walked slowly in the alley in front of the gilts' crates, exposing each test gilt to visual, auditory and olfactory signals from the boar for up to 5 minutes. In keeping with standard practice at commercial farms, while the boar was near the front of the gilt's crate, estrus was tested by an experienced person applying back pressure to the midsection of the gilt combined with side rubbing. Estrus was confirmed when a gilt stood rigidly to the back pressure, with no vocalization and with some indication of an ear reflex. Gilts were not exposed to boars during the first three days after withdrawal of MATRIX® (Day 0 to Day 2). Estrus detection was performed daily on all gilts from Day 3 to Day 7.

gilts [2] = assay: Example 1: ovulation monitoring by transrectal ultrasonography after 200 mcg triptorelin gel intravaginally at 96, 120 or 144 h after MATRIX withdrawal; details: raw averages, PTK 1-07 (rep 3), 200 mcg T
Experimental: (§1) All gilts were individually fed MATRIX® as a top-dress for 14 days at the recommended rate of 15 mg/gilt/day. Gilts were withdrawn from MATRIX® feeding (last top feed in the morning on Day 0) and allotted to treatments. Controls were treated with a 1.2% methylcellulose gel formulation without triptorelin at 96 hours following MATRIX® withdrawal (last top-dress). The remaining gilts received 200 mcg triptorelin, as the acetate, in a 1.2% methylcellulose gel formulation intravaginally at various times after MATRIX® withdrawal. The four treatments were: 1) vehicle gel (VG) treatment at 96 hours after MATRIX® withdrawal, 2) triptorelin gel (TG) treatment at 96 hours after MATRIX® withdrawal, 3) TG treatment at 120 hours after MATRIX® withdrawal and 4) TG treatment at 144 hours after MATRIX® withdrawal. All gilts were monitored for their estrous and ovulatory status as described below. Gilts included in replicate 1 were selected from terminal line commercial production gilts located in grow/finish barns. Sexual maturity, as indicated by one or more estrous periods, was not verified prior to the start of MATRIX® feeding. Gilts included in replicate 2 were selected from a maternal line gilt population. Sexual maturity was verified by at least one estrous period verified and recorded prior to starting MATRIX® feeding.
The ovulatory status of all gilts was monitored by transrectal ultrasonography. For replicate one, ovulation was monitored two times on Day 5, then three times a day from Day 6 to Day 8. For replicate two, ovulation was monitored three times a day from Day 5 to Day 8. An Aloka 500 ultrasound machine with a 7.5 MHz linear array transducer attached to a fixed-angle PVC stabilizing rod to facilitate insertion into the rectum was used for this purpose. The transducer and PVC rod were coated with a gynecological lubricant and gently inserted into the rectum until the ovaries were visualized, one at a time. The diameters of the three largest follicles were recorded (to the nearest 0.1 mm) at each scanning. A gilt was declared to have ovulated when the number of large follicles (≥6.5 mm) fell to less than 3.
(§2) A single 2 mL dose of triptorelin gel or vehicle gel was deposited within approximately 1-2 cm posterior to the cervix with a catheter similar to those used for artificial insemination. The dose was delivered using a standard multi-dose applicator attached to the catheter. A new disposable sheath, which surrounds the catheter, was used for each gilt.
Data were analyzed using the Mixed Models procedures of SAS. Models included main effects of time of treatment following the last feeding of MATRIX®, replicate, and treatment by replicate interaction. Differences between treatments were tested on least squares means estimates using the T test at P<0.05. Data for analysis were tested for assumptions of data normality.

gilts [3] = assay: Example 1: estrus observation (boar exposure, back pressure) after triptorelin gel; details: raw averages; PTK 1-07 (rep 3); 200 mcg T at 120 h
Experimental: as §1
For post-treatment estrus detection, gilts were housed in individual pens. […]

gilts [4] = assay: Example 5: ovulation monitoring by transrectal ultrasonography after 100, 200 or 400 mcg triptorelin gel at 120 h after MATRIX withdrawal; details: for Percentage ovulated by 48 hours: catheterized subpopulation; for % of Sows Ovulating: raw averages, PTK 2-07
Experimental: All gilts were individually fed MATRIX® as a top-dress for 14 or 15 days at the recommended rate of 15 mg/gilt/day. Gilts were withdrawn from MATRIX® feeding (last top-dress in the morning on Day 0) and allocated to each of the following treatments. Controls were vehicle gel treated (vehicle gel without triptorelin) at 120 (+/−2) hours following MATRIX® withdrawal (last top dress). The other gilts were given 100, 200 or 400 mcg triptorelin as the acetate in a methylcellulose gel formulation 120 (+/−2) hours following MATRIX® withdrawal. The four treatments were:
1. Vehicle gel (VG): vehicle gel without triptorelin at 120 (+/−2) hours after MATRIX® withdrawal.
2. TG 100: 100 mcg (2 mL 50 mcg/mL) triptorelin gel at 120 (+/−2) hours after MATRIX® withdrawal.
3. TG 200: 200 mcg (2 mL 100 mcg/mL) triptorelin gel at 120 (+/−2) hours after MATRIX® withdrawal.
4. TG 400: 400 mcg (2 mL 200 mcg/mL) triptorelin gel at 120 (+/−2) hours after MATRIX® withdrawal.
Ovulation was monitored twice on Day 5 (8 hours and 16 hours post-treatment) and every 8 hours on Day 6 and Day 7 or until ovulation was confirmed or 176 hours following last MATRIX® feeding. The ovulatory status of all gilts was monitored by transrectal ultrasonography. An Aloka 500 ultrasound machine is used for this purpose, with a 7.5 MHz linear array transducer attached to a fixed-angle PVC stabilizing rod to facilitate insertion into the rectum. The transducer and PVC rod are coated with a gynecological lubricant and gently inserted into the rectum until the ovaries can be visualized, one at a time. The diameters of the three largest follicles were recorded (to the nearest 0.1 mm) at each scanning. A gilt was declared to have ovulated when the number of large follicles 6.5 mm) fell to less than 3.
as §2

serum LH = assay: Example 5: blood collection and serum LH analysis (LH surge); details: for Gilts, which displayed a LH surge: number of gilts
Experimental: A catheter was inserted non-surgically into the jugular vein (Kraeling et al. 1982) of a subpopulation of gilts in each treatment group (vehicle gel, n=8; 100 mcg triptorelin, n=6; 200 mcg triptorelin, n=7 and 400 mcg triptorelin, n=6). Ten mL blood samples were collected every 15 minutes for one hour prior to treatment, immediately following treatment (0) and at 0.5, 1, 2, 4, 6, 12, 18, 24, 36 and 48 hours after treatment. Blood samples were maintained at 4° C. until centrifuged at 800×g for 15 minutes within 12 hours of collection. The resulting serum was stored frozen until assayed for LH using validated procedures for pig serum (Kesner et al., 1987 and Kraeling et al., 1982). Onset, duration, and magnitude of the LH surge were analyzed. The LH data were analyzed with the General Linear Models procedure of SAS. Differences between treatments were tested on least squares means estimates using the T test at P<0.05. Onset of the LH surge is when serum LH concentration is greater than or equal to two standard deviations of the mean of the pre-treatment serum LH concentrations. Duration of the LH surge is the period between onset and when serum LH concentration is again less than or equal to two standard deviations of the mean of the pre-treatment serum LH concentrations. Magnitude of the LH surge is the maximum serum LH concentration reached during the LH surge.

[5] = relative to time of triptorelin gel treatment, 200 mcg T

Compound: CC(C)C[C@H](NC(=O)[C@@H](Cc1c[nH]c2ccccc12)NC(=O)[C@H](Cc1ccc(O)cc1)NC(=O)[C@H](CO)NC(=O)[C@H](Cc1c[nH]c2ccccc12)NC(=O)[C@H](Cc1c[nH]cn1)NC(=O)[C@@H]1CCC(=O)N1)C(=O)N[C@@H](CCCNC(=N)N)C(=O)N1CCC[C@H]1C(=O)NCC(N)=O [T, pGlu-His-Trp-Ser-Tyr-D-Trp-Leu-Arg-Pro-Gly-NH2]
- Estrous Expression (%) (gilts [1]; 100 mcg T at 120 h): 75.0%
- Estrous Expression (%) (gilts [1]; 200 mcg T at 120 h): 81.0%
- % of Sows Ovulating (gilts [2]; 128 h post-MATRIX, 8 h post-T): 0.0%
- % of Sows Ovulating (gilts [2]; 136 h post-MATRIX, 16 h post-T): 10.0%
- % of Sows Ovulating (gilts [2]; 144 h post-MATRIX, 24 h post-T): 30.0%
- % of Sows Ovulating (gilts [2]; 152 h post-MATRIX, 32 h post-T): 70.0%
- % of Sows Ovulating (gilts [2]; 160 h post-MATRIX, 40 h post-T): 80.0%
- % of Sows Ovulating (gilts [2]; 168 h post-MATRIX, 48 h post-T): 90.0%
- % of Sows Ovulating (gilts [2]; 176 h post-MATRIX, 56 h post-T): 100.0%
- Estrous Expression (%) (gilts [3]): 100.0%
- Percentage ovulated by 48 hours (gilts [4]; 100 mcg T (n = 6)): 100%
- Percentage ovulated by 48 hours (gilts [4]; 200 mcg T (n = 7)): 100%
- Percentage ovulated by 48 hours (gilts [4]; 400 mcg T (n = 6)): 100%
- % of Sows Ovulating (gilts [4]; 100 mcg T, 128 h post-MATRIX, 8 h post-T): 0.0%
- % of Sows Ovulating (gilts [4]; 100 mcg T, 136 h post-MATRIX, 16 h post-T): 5.0%
- % of Sows Ovulating (gilts [4]; 100 mcg T, 144 h post-MATRIX, 24 h post-T): 20.0%
- % of Sows Ovulating (gilts [4]; 100 mcg T, 152 h post-MATRIX, 32 h post-T): 30.0%
- % of Sows Ovulating (gilts [4]; 100 mcg T, 160 h post-MATRIX, 40 h post-T): 60.0%
- % of Sows Ovulating (gilts [4]; 100 mcg T, 168 h post-MATRIX, 48 h post-T): 95.0%
- % of Sows Ovulating (gilts [4]; 100 mcg T, 176 h post-MATRIX, 56 h post-T): 100.0%
- % of Sows Ovulating (gilts [4]; 200 mcg T, 128 h post-MATRIX, 8 h post-T): 0.0%
- % of Sows Ovulating (gilts [4]; 200 mcg T, 136 h post-MATRIX, 16 h post-T): 0.0%
- % of Sows Ovulating (gilts [4]; 400 mcg T, 128 h post-MATRIX, 8 h post-T): 4.5%
- % of Sows Ovulating (gilts [4]; 400 mcg T, 136 h post-MATRIX, 16 h post-T): 9.1%
- % of Sows Ovulating (gilts [4]; 400 mcg T, 168 h post-MATRIX, 48 h post-T): 100.0%
- % of Sows Ovulating (gilts [4]; 400 mcg T, 176 h post-MATRIX, 56 h post-T): 100.0%
- Duration of LH surge (serum LH; 200 mcg T): 18
- Onset of LH surge (serum LH; LS mean ± SE, relative to time of triptorelin gel treatment, 100 mcg T): 4 ± 3
- Onset of LH surge (serum LH; LS mean ± SE, relative to time of triptorelin gel treatment, 400 mcg T): 4 ± 4
- Gilts, which displayed a LH surge (serum LH; 100 mcg T (n = 6)): 4
- Gilts, which displayed a LH surge (serum LH; 200 mcg T (n = 7)): 1
- Gilts, which displayed a LH surge (serum LH; 400 mcg T (n = 6)): 5
- Onset of LH surge (serum LH; [5]): 0.5
- Time of maximum LH conc. (serum LH; [5]): 4 h
